Our source for the IC50 and Cysteine reaction values is ChEMBL document CHEMBL1127528, “Synthesis and carbonic anhydrase inhibitory activity of 4-substituted 2-thiophenesulfonamides” (J Med Chem, 1994).

Where only a bound is given, the exact number is not on record here.

Test [1] addresses Carbonic anhydrase 2 (Homo sapiens, UniProt P00918).
Description: Activity against human carbonic anhydrase II
A short description of test [2]: Ocular sensitization assay as susceptibility to nucleophilic attack by cysteine. The test is classed as functional.

Take `CCCCC(N)c1csc(S(N)(=O)=O)c1` (stereo unspecified): the IC50 in test [1] was 626 nM.

On to `NS(=O)(=O)c1cc(C(=O)c2ccccc2)cs1`, for which the Cysteine reaction in test [2] was found to be 5e-05 min⁻¹. The IC50 in test [1] was 6.8 nM.

In test [1], `CCCCNC(C)c1csc(S(N)(=O)=O)c1` (stereo unspecified) registered an IC50 of 590 nM.

In test [1], `CCCCC(=O)c1csc(S(N)(=O)=O)c1` came in with an IC50 of 6.3 nM. Against the preceding compound, the IC50 is about 94-fold lower.

Consider `CCCCC(O[Si](C)(C)C(C)(C)C)c1csc(S(N)(=O)=O)c1` (stereo unspecified), for which 200 nM corresponded to half-maximal inhibition in test [1] (IC50).

Regarding `CCCCCC/C(=N\O)c1csc(S(N)(=O)=O)c1`, the Cysteine reaction in test [2] was determined as 5e-05 min⁻¹. Besides, the IC50 in test [1] stood at 5.8 nM.

In the case of `CCCCCCC(=O)c1csc(S(N)(=O)=O)c1`, the Cysteine reaction in test [2] amounted to 5e-05 min⁻¹. Further, the IC50 in test [1] turned out to be 5 nM.

With `CCCCCC/C(=N\OC)c1csc(S(N)(=O)=O)c1`, the Cysteine reaction in test [2] is 5e-05 min⁻¹. The compound further showed an IC50 in test [1] of 4.7 nM.

`CC(C)CN[C@H]1CCS(=O)(=O)c2sc(S(N)(=O)=O)cc21`: the Cysteine reaction in test [2] was less than 5e-05 min⁻¹.

Regarding `CCCC/C(=N\O)c1csc(S(N)(=O)=O)c1`, the IC50 in test [1] turned out to be 15 nM.

`CCCCCCC(O)c1csc(S(N)(=O)=O)c1` (stereo unspecified): the Cysteine reaction in test [2] is less than 5e-05 min⁻¹. The IC50 in test [1] is 13 nM.

Turning to `CC(=O)c1csc(S(N)(=O)=O)c1`, the IC50 in test [1] came out at 16 nM.

As to `CC(=O)Nc1nnc(S(N)(=O)=O)s1`, the Cysteine reaction in test [2] was found to be 3.5e-05 min⁻¹.

Turning to `CCCCCC/C(=N\N)c1csc(S(N)(=O)=O)c1`, the Cysteine reaction in test [2] worked out at 5e-05 min⁻¹. In test [1], this compound came in with an IC50 of 2 nM.

For `CCCCCCC(N)c1csc(S(N)(=O)=O)c1` (stereo unspecified), half-maximal inhibition in test [1] (IC50) required 160 nM. In other words, the sub-micromolar range.
